From patent US9072751B2, “Na/K-ATPase ligand” (priority 2006, dated 2015)
Where two headings read alike, the source gives them in different places.

What was measured:
[1] = system: dermal fibroblasts; experiment: Collagen expression in human dermal fibroblasts; format: cell-based; details: 5 or 10 nM
Description: (§1) We next examined whether skin fibroblasts lines had similar response. This was done with dermal fibroblasts kindly provided by Dr. Bashar Kahaleh. […] The magnitude of this response is illustrated by comparison to maximal doses of TGFβ, the “classic” stimulus for fibrosis (see below). In addition, we observed that an immortalized fibroblast line responded similarly to MBG, ouabain and digoxin.
(§2) Response of dermal fibroblasts to MBG as compared with TGF beta. Note that increase in collagen expression in MBG is approximately 10 fold with 5 or 10 nM MBG.

[2] = system: isolated cardiac fibroblasts; format: cell-based, rat; details: 24 hours
Description: Preparation of adult rat cardiac fibroblasts was performed as described previously by Brilla et al. with modifications.
Western blot analysis was performed on protein isolated from tissue homogenates, cell culture whole cell lysates, or nuclear extracts as described previously.
Representative Western blot for procollagen and quantitative densitometric data obtained in response to different doses of (a) MBG (all N=10), (b) MBG 10 nM contrasted with different doses of ouabain (0.1 to 100 nM) and digoxin (10 nM; all N=8). c, ouabain sensitive Rb uptake as a function of MBG and ouabain concentration (N=4 at each concentration for both MBG and ouabain; data expressed as fraction of control). d, relative proline incorporation in the supernatant and matrix, both will and without collagenase digestion (total). Each group (controls and different doses of MBG) contains N=7 replicants. The difference between the total and after collagenase digestion is reported as collagen. The matrix is the sample that was obtained after removing supernatant and scraping the culture dish. e, mRNA for collagen 1 in MBG-treated (10 nM; N=8) or control (N=8) fibroblasts. f, procollagen stability after cycloheximide treatment. Time 0 is 1 hour after incubation with cycloheximide (20 μg/mL). […] Least-square regression line fit to control (CTL) and MBG data. Bars on quantitative graphs represent the mean.+−.SEM. *P<0.05 and **P<0.01 vs control.
(§3) The PP2, herbimycin AG1478, and N-acetyl cysteine were administered from 2 hours before the addition of MBG and continued throughout the 24 hours of MBG incubation (total of 26 hours). Each bar represents the mean.+−.SEM of n=8 experiments. b, effects of PP2 (1 μmol/L) and N-acetyle cysteine (2.5 mmol/L) on MBG (10 nM)-stimulated proline incorporation into collagen. Again, the PP2 an N-acetyl cysteine were added 2 hours before exposure to MBG. Each bar represents the mean.+−.SEM of N=5 experiments. c, effects of MBG 10 nM on procollagen content in SYF and SYF+ cells. Representative Western blots are shown above quantitative data. SYF blots loaded with 15 μg of protein and SYF+blots loaded with 10 μg of protein. Each bar represents the mean.+−SEM of N-6 determinations In each group. **P<01.10 vs. control.
(§4) The effect of 24 hours of MBG (1 and 10 nM) on TGF-β, Smad 2/3, Smad 4, and pSmad 2/3 expression determined by Western blot. b and c, effects of 24 hours of MBG (10 nM), TGFβ(5 ng/mL), and the TGF-β receptor antagonist SB431542 ([…] on procollagen-1 expression (Western blot) and radiolabeled proline incorporation, respectively also were carried out. SB431542 was added 2 hours before exposure to either TGFβ or MBG (total of 26-hour exposure). Each bar represents the mean.+−.SEM of 6 to 8 determinations. *P<0.05, **P<0.01 vs. control.

[3] = system: TGF-β, Smad 2/3, Smad 4, pSmad 2/3; experiment: TGF-β, Smad 2/3, Smad 4, pSmad 2/3 expression in fibroblasts (Western blot); format: cell-based, rat; details: 24 hours, 1 and 10 nM
Description: To further examine the molecular mechanisms by which cardiotonic steroids induce collagen production in fibroblasts, we examined the effects of MBG on TGF-β expression, as well as the expression of Smad 2/3, Smad 4, and pSmad 2/3. […] Next, we examined whether TGF-β induced collagen production and whether there was synergism between TGF-β and MBG. […] However, it is important to point out that we never completely serum starve the primary cultures, and because serum is always present, some TGF-β is always present.
as §4

[4] = system: fibroblast cell line; experiment: Procollagen expression in immortalized fibroblast cell line (Western blot); format: cell-based
Description: as §1, §2

[5] = system: isolated cardiac fibroblasts; experiment: Collagen-1 mRNA by standardized RT-PCR in cardiac fibroblasts; format: cell-based, rat; details: 24 hours, 10 nM
Description: Standardized RT-PCR was used to measure gene expression, with GAPDH transcript used as the housekeeping gene, as reported previously.
(§5) To further examine the molecular basis of this cardiac fibrosis, isolated cardiac fibroblasts were subjected to increase doses of MBG (10^−10, 10^−9, and 10^−8 M). […] Using collagenase digestion, we observed that the vast majority of the proline incorporation was into collagen. Using standardized RT-PCR, we observed a doubling of mRNA for collagen-1 at 24 hours in response to 10 nM of MBG.
(§6) Representative Western blot for procollagen and quantitative densitometric data obtained in response to different doses of (a) MBG (all N=10), (b) MBG 10 nM contrasted with different doses of ouabain (0.1 to 100 nM) and digoxin (10 nM; all N=8). c, ouabain sensitive Rb uptake as a function of MBG and ouabain concentration (N=4 at each concentration for both MBG and ouabain; data expressed as fraction of control). d, relative proline incorporation in the supernatant and matrix, both will and without collagenase digestion (total). Each group (controls and different doses of MBG) contains N=7 replicants. The difference between the total and after collagenase digestion is reported as collagen. […] Bars on quantitative graphs represent the mean.+−.SEM. *P<0.05 and **P<0.01 vs control.

[6] = system: isolated cardiac fibroblasts; experiment: Procollagen stability after cycloheximide in cardiac fibroblasts; format: cell-based, rat; details: 10 nM
Description: as §5, §6

[7] = system: SYF+ cells; experiment: Procollagen expression in SYF+ cells; format: cell-based; details: MBG 10 nM
Description: To examine whether cardiotronic steroids induced collagen synthesis by signaling through the Na/K-ATPase, we performed the following studies. First, we used pharmacological antagonism at several steps in the Na/K-ATPase cascade. Specifically, we used pharmacological antagonism of Src activation with PP2, nonspecific tyrosine kinase inhibition with herbimycin, inhibition of EGFR transactivation with AG1478, and nonspecific antioxidant administration with N-acetyle cysteine. […] Next we performed studies in the SYF and SYF+ cells (details available in the online supplement).
as §3, with “The effects of PP2 (1 μmol/L), herbimycin (1 μmol/L), AG1478 (250 nM), and N-acetyl cysteine (2.5 mmol/L) on MBG (10 nM) stimulation of procollagen expression also were found. The” for “The”, “SYF blots loaded with 15 μg of protein and SYF+blots loaded with 10 μg of protein. Each bar represents the mean.+−SEM of N-6 determinations In each group. **P<01.10 vs. control.” left out

C[C@]12CC[C@H](O)C[C@@]1(O)CC[C@@H]1[C@@H]2CC[C@]2(C)[C@@H](c3ccc(=O)oc3)C[C@H]3O[C@]132 [MBG, marinobufagenin]
Increase in collagen expression [1]: approximately 10 fold
Increase of procollagen content (Western blot) ([2]; 10^−8 M): about 2 fold
Increase of procollagen content (Western blot) ([2]; 10^−9 M): about 2 fold
TGF-β, Smad 2/3, Smad 4, pSmad 2/3 expression in vitro [3]: did not observe significant changes
Effect on fibroblast cell line expression of procollagen [4]: Comparable effect
mRNA for collagen-1 [5]: doubling
Procollagen stability (procollagen-1 expression after cycloheximide) [6]: did not detect any increases
Upregulation of procollagen expression in SYF+ cells [7]: very similar way as the primary cardiac fibroblast cultures
